Data taken from patent US20250177340A1, “Tartaric Acid Analogs and Uses Thereof” (Lapix Therapeutics, Inc., priority 2021, published 2025).

How the values were obtained:
PD-1 = assay: Percent PD-1+/CD8+ T-cells in splenocytes after a single dose, melanoma murine model; type: in vivo, mice
Procedure: The pharmacodynamic (PD) effects of a single IV dose of Compound B in a melanoma murine model were evaluated. B16F10 melanoma cells were grown in RPMI 1640 media supplemented with 10% FBS and antibiotics (penicillin/streptomycin) using T75 flasks. When cells reached 70-80% confluency, they were treated with 3 ml of 0.25% Trypsin/EDTA. Afterward, detached cells were harvested. A single-cell suspension was prepared in PBS. An IV injection of 10^5 cells in mice marked day −3 of the experiment.
Animals were housed four per cage, and had access to food and water ad libitum. Compound B was dissolved in sterile PBS, and pH was adjusted to approximately 7.5. Sterile PBS served as control.
Three days after the IV injection of melanoma cells, animals in the baseline group (n=3) were sacrificed and their spleens were collected for KLRG-1, CTLA-4, and PD-1 analysis. At each predetermined time-point (24, 48, and 120 hours after dosing) three animals from each group were sacrificed for splenocyte analysis of KLRG-1, CTLA-4, and PD-1 expression levels, and expression levels were compared to baseline.
Spleens collected for splenocyte analysis were prepared into a single-cell suspension for cellular phenotyping by flow cytometry. Cells were stained and gated for CD8. Percent KLRG-1+, CTLA-4+, and PD-1+ CD8+ T-cells were evaluated using flow cytometry.
The PD effects of a single IV dose of Compound C were evaluated in a melanoma murine model conducted as described in Example 10. […] This study also evaluated whether Compound C was pharmacodynamically active orally.
In a prior study, Compound C was dosed at 1 mg IV QD for seven days. […] A single PO dose was chosen to confirm oral activity of Compound C. Compound C was dissolved in DMSO, and then diluted in sterile PBS. pH was adjusted to approximately 7.5.
The oral and intravenous PD effects of a single dose of Compound E were evaluated in a melanoma murine model conducted as described in Example 10.
Compound E was dissolved in DMSO, and then diluted in sterile PBS. pH was adjusted to approximately 7.5.

murine CD8+ T cells = assay: Murine CD8+ T-cell proliferation (CFSE), Example 6; type: cell-based, C57BL/6 mice; conditions: 30 mM, ConA 10 μg/ml
Procedure: Preparation of test materials: TTA, compound A and compound B were formulated in RPMI media under aseptic conditions. The pH was adjusted to approximately 7.5 before dosing cells.
Tissue culture and dosing: Splenocytes of C57BL/6 mice were stained with CFSE and prepared, cultured, and dosed. Cells were seeded at 1×10^5 cells/well in a 96-well round-bottomed plate.
Controls: Two controls were used. A negative control dosed with 10 ng/ml IL2 was used, and a positive control dosed with 20 μg/ml ConA and 10 ng/ml IL2 was used.
Treatment: After ConA stimulation (10 μg/ml), cells were dosed with 30 mM compound A, B or C with or without 0.1 mM 30:70 PS:DMPC liposomes. All wells were dosed with 10 ng/ml of IL-2.

Granzyme B and IFN-γ = assay: GzmB+/IFN-γ+ double-positive murine CD8+ T-cells, Example 7; type: cell-based, C57BL/6 mice
Text: (§1) In this study, the effects of increasing doses of compound B and compound C on proliferation (CFSE staining), activation (Granzyme B and IFN-γ), and checkpoint modulation (PD1 and TIM3) of murine CD8+ T-cells in the presence and absence of phosphatidylserine (PS) were explored.
(§2) Preparation of test materials: 30:70 PS:DMPC liposomes were synthesized in PBS. […] Compound C was first dissolved in a small volume of DMSO before diluting to the final desired concentration.
(§3) Tissue culture and dosing: Splenocytes of C57BL/6 mice were stained with CFSE and prepared, cultured, and dosed. Cells were seeded at 4×10^5 cells/well.
(§4) Controls: Two controls were used. A negative control dosed with 10 ng/ml IL-2 was used, and a positive control dosed with 20 μg/ml ConA and 10 ng/ml IL-2 was used.
(§5) Treatment: After ConA stimulation (10 μg/ml), cells were dosed with log 3 dilution of compound B or compound C to cover a range from 1×10^−3 to 30 mM in duplicates with or without 0.1 mM PS:DMPC liposomes. All wells were dosed with 10 ng/ml of IL-2.
(§6) Flow cytometer: Flow cytometer analysis was performed to assess cell proliferation by CFSE, activation by double staining for Granzyme B (GzmB) and IFN-γ, checkpoint modulation by double staining for PD-1 and TIM3.
(§7) Exposure-response analysis: Change from baseline was calculated for each marker as follows:
(§8) Concentration versus change was fitted to an appropriate three-, four- or five-parameter log-logistic model using “dre” package in “R.”
(§9) The fold change from baseline GzmB+/IFN-γ+ double-positive CD8+ T-cells as a function of increasing doses of compound B was calculated using equation 1, where Responsecontrol was GzmB+/IFN-γ+ double-positive CD8+ T-cells in cells treated with IL-2 alone and Responsetreatment was GzmB+/IFN-γ+ double-positive CD8+ T-cells at each dose of compound B. The baseline PS response was calculated using the same equation with Responsetreatment as the GzmB+/IFN-γ+ double-positive CD8+ T-cells treated with 0.1 mM PS.

TIM3 and PD-1 = assay: TIM3+/PD-1+ double-positive murine CD8+ T-cells, Example 7; type: cell-based, C57BL/6 mice; conditions: for effect on PS-stimulated TIM3+/PD-1+ double-positive CD8+ T-cells: 0.1 mM PS; for average reduction in TIM3+/PD-1+ double-positive CD8+ T-cells vs 0.1 mM PS treated cells / average reduction in TIM3+/PD-1+ double-positive CD8+ T-cells vs negative control: absence of PS, dose-independent
Text: as §1, §2, §3, §4, §5, §6, §7, §8
as §9, with “baseline of TIM3+/PD-1+” for “baseline GzmB+/IFN-γ+”, “was TIM3+/PD-1+” for “was GzmB+/IFN-γ+”, “the TIM3+/PD-1+” for “the GzmB+/IFN-γ+”

[1] = increasing doses, absence of PS

## O=C(O)[C@H](O)[C@@H](O)C(=O)OCCC(c1ccccc1)c1ccccc1 [Compound C, (2R,3R)-4-(3,3-diphenylpropoxy)-2,3-dihydroxy-4-oxobutanoic acid]
PD-1; 0.025 mg/mouse IV single dose, 24 h
  PD-1+/CD8+ T-cells, mean: 35%
PD-1; 0.1 mg/mouse IV single dose, 24 h
  PD-1+/CD8+ T-cells, mean: 34%
PD-1; 0.25 mg/mouse IV single dose, 24 h
  PD-1+/CD8+ T-cells, mean: 27%
PD-1; 1 mg/mouse IV single dose, 24 h
  PD-1+/CD8+ T-cells, mean: 26%
PD-1; 2.5 mg/mouse po single dose, 24 h
  PD-1+/CD8+ T-cells, mean: 33%
PD-1; 0.25- and 1-mg IV groups
  decrease in PD-1+/CD8+ T-cells compared to baseline: approximately 20%
  decrease in PD-1+/CD8+ T-cells compared to time match control: approximately 30%
PD-1; remaining groups (0.025, 0.1 mg IV, 2.5 mg PO)
  change in PD-1+/CD8+ T-cells compared to baseline or control: No meaningful changes
Murine CD8+ T cells; in absence of PS
  percent of CD8+ T-cell proliferation: 84.5%
Murine CD8+ T cells; in the presence of 0.1 mM PS
  percent of CD8+ T-cell proliferation: 55.5%
Granzyme B and IFN-γ; highest dose, 0.1 mM PS
  fold increase in GzmB+/IFN-γ+ double-positive CD8+ T-cells vs PS treated cell: 18 fold
  fold increase in GzmB+/IFN-γ+ double-positive CD8+ T-cells vs negative control: 10 fold
Granzyme B and IFN-γ; [1]
  fold increase in GzmB+/IFN-γ+ double-positive CD8+ T-cells vs negative control: about 30 fold
TIM3 and PD-1
  effect on PS-stimulated TIM3+/PD-1+ double-positive CD8+ T-cells: can reverse the stimulatory effect of PS
  average reduction in TIM3+/PD-1+ double-positive CD8+ T-cells vs 0.1 mM PS treated cells: about ⅘
  average reduction in TIM3+/PD-1+ double-positive CD8+ T-cells vs negative control: about ⅔

## O=C(O)[C@H](O)[C@@H](O)C(=O)OCCCc1ccccc1 [Compound B, (2R,3R)-2,3-dihydroxy-4-oxo-4-(3-phenylpropoxy)butanoic acid]
PD-1; 0.14 mg/mouse IV single dose, 24 h
  PD-1+/CD8+ T-cells, mean: 38.6%
PD-1; 0.14 mg/mouse IV single dose, 48 h
  PD-1+/CD8+ T-cells, mean: 32.5%
PD-1; 0.14 mg/mouse IV single dose, 120 h
  PD-1+/CD8+ T-cells, mean: 59.7%
PD-1; 0.7 mg/mouse IV single dose, 24 h
  PD-1+/CD8+ T-cells, mean: 44.5%
PD-1; 0.7 mg/mouse IV single dose, 48 h
  PD-1+/CD8+ T-cells, mean: 26.7%
PD-1; 0.7 mg/mouse IV single dose, 120 h
  PD-1+/CD8+ T-cells, mean: 58.2%
PD-1; 1.2 mg group, day 5
  reduction in PD-1+/CD8+ T-cell compared to control: 41.8%
PD-1; 1.4 mg/mouse IV single dose, 24 h
  PD-1+/CD8+ T-cells, mean: 42.3%
PD-1; 1.4 mg/mouse IV single dose, 48 h
  PD-1+/CD8+ T-cells, mean: 30.4%
PD-1; 1.4 mg/mouse IV single dose, 120 h
  PD-1+/CD8+ T-cells, mean: 34.7%
Murine CD8+ T cells; in absence of PS
  percent of CD8+ T-cell proliferation: 78.3%
Granzyme B and IFN-γ; highest dose, 0.1 mM PS
  fold increase in GzmB+/IFN-γ+ double-positive CD8+ T-cells vs PS treated cell: 4.6 fold
  fold increase in GzmB+/IFN-γ+ double-positive CD8+ T-cells vs negative control: 2 fold
Granzyme B and IFN-γ; [1]
  fold increase in GzmB+/IFN-γ+ double-positive CD8+ T-cells vs negative control: more than 16 fold
TIM3 and PD-1
  effect on PS-stimulated TIM3+/PD-1+ double-positive CD8+ T-cells: reverse the stimulatory effects of PS
  average reduction in TIM3+/PD-1+ double-positive CD8+ T-cells vs 0.1 mM PS treated cells: about ⅔
  average reduction in TIM3+/PD-1+ double-positive CD8+ T-cells vs negative control: about ⅗
